From patent US12104180B2, “Enzyme with acyl transfer function and application thereof” (OCEAN UNIVERSITY OF CHINA, priority 2020, dated 2024)
Residue numbers refer to the chain shown, from its start. Names and notes keep the numbering of the source.

Assays:
[1] = tested on: methicillin-resistant Staphylococcus aureus; conditions: cited from earlier work
[2] = tested on: vancomycin-resistant Enterococci; conditions: cited from earlier work
[3] = tested on: Burkholderia cepacia varieties; conditions: cited from earlier work
[4] = tested on: Staphylococcus aureus; conditions: cited from earlier work
[5] = tested on: Pyricularia oryzae; conditions: cited from earlier work
[6] = tested on: Alternaria alternata; conditions: cited from earlier work
[7] = tested on: B1-F10 murine melanoma cells; conditions: cited from earlier work
[8] = tested on: mammalian herpes simplex virus; conditions: cited from earlier work
[9] = tested on: HIV virus; conditions: cited from earlier work
[10] = format: biochemical; conditions: 30° C., 2 h, substrate Macrolactin A

## CC1CCCC=CC=CC(O)CC(O)CC=CC=CC(OC(=O)CC(=O)O)CC=CC=CC(=O)O1 (centres unmarked) [7-O-malonyl Macrolactin A]
[1]
  inhibition of methicillin-resistant Staphylococcus aureus: can sufficiently inhibit
[2]
  inhibition of vancomycin-resistant Enterococci: can sufficiently inhibit
[3]
  inhibition of Burkholderia cepacia varieties: can sufficiently inhibit

## Macrolactin T
[4]
  inhibition of Staphylococcus aureus: inhibit
[5]
  effect on plant pathogenic fungus Pyricularia oryzae: obvious effects
[6]
  effect on plant pathogenic fungus Alternaria alternata: obvious effects

## Macrolactin B
[4]
  inhibition of Staphylococcus aureus: inhibit
[5]
  effect on plant pathogenic fungus Pyricularia oryzae: obvious effects
[6]
  effect on plant pathogenic fungus Alternaria alternata: obvious effects

## C[C@@H]1CCC/C=C/C=C/[C@H](O)C[C@@H](O)C/C=C\C=C\[C@@H](O)C/C=C/C=C\C(=O)O1 [Macrolactin A]
[7]
  inhibition of B1-F10 murine melanoma cells: can inhibit
[8]
  inhibition of mammalian herpes simplex virus: can inhibit
[9]
  protection of lymphocytes through inhibiting HIV virus: can protect lymphocytes

B1: wild-type BmmI protein: acyltransferase BmmI from marine-derived Bacillus methylotrophicus B-9987, sequence SEQ ID NO:1 (protein)
chain: MKQTISNPAFDMKQINALNGHYQTMIDNGDLQCASYMMSRGGEVFAAESLGEFTGGQKEKQTFQLDTIREIGSLTKVFTAVAVMQLVEKGLLDLKMPVKLILPAFDKPGFGEIKILHLLTHTAGLSFELDIQKAEGIDLTNEEEWINYLVSTPLEYGVDEAWNYSRTGFVILGIIISKVTGVSYEQYVTKHIIEALGLERTYFYVPDTLKEEVCVISEHECVQLEKSHHPYFPNKATSGLYSSLRDIWKLAEMFRNKGRLKDKKLLGRKTVEAMLRNQIKPGLPFYFFGAPREEGGFGLGINLWPAGDHYFMTEGTFSHLGMGWCGMFSDPAEDFTYVFFTPISEFHPHAVLTPLNIVWAGIE
modifications: bmmI acyltransferase protease sequence
[10]; FIG. 7
  acyl donors recognized (side chain length): malonyl-CoA (C3), succinyl-CoA (C4), glutaryl-CoA (C5) and hexanedioyl-CoA (C6)

B2: R166G (protein)
chain: B1 chain with R166G
modifications: mutant protein R166G amino acid sequence
[10]; compared with wild type towards malonyl-CoA
  catalytic efficiency towards glutaryl-CoA, hexanedioyl-CoA, acetyl-CoA, and acetyl-CoA: equivalent to that of the wild-type protein towards malonyl-CoA
